By IC50 is commonly meant the concentration that gives 50% inhibition.

This experiment has as its target T1, human NaV1.8 (Homo sapiens, UniProt Q9Y5Y9).
T1 construct: The following NaV1.8 recombinant cell line was used for recordings: HEK-NaV1.8 (NM 006514.1); expressed in transfected cells; host or cells: HEK (recombinant cell line HEK-NaV1.8)
Put plainly: Electrophysiology: automated whole-cell voltage-clamp (patch clamp, Qube384) recordings of sodium currents in HEK-NaV1.8 cells. Format: cell-based. The settings on record: potency data either taken from inactivated or resting state, read-out: Potency category (human NaV1.8 IC50). Put shortly:
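Automated whole-cell patch clamp at room temperature on HEK cells expressing human NaV1.8, with 0.3% DMSO vehicle controls. State-dependent protocol from −120 mV tested resting (P1) and half-inactivated (P2, 4 s at V1/2) channels, plus 40-pulse trains at 10 and 20 Hz. Values after ~12 min compound exposure were normalised to baseline and corrected for vehicle run-down; IC50 from a 4-parameter logistic fit, taken from inactivated or resting state.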
(In patch-clamp work, channel activity is measured electrically.)

T1 sequence (Q9Y5Y9 whole entry): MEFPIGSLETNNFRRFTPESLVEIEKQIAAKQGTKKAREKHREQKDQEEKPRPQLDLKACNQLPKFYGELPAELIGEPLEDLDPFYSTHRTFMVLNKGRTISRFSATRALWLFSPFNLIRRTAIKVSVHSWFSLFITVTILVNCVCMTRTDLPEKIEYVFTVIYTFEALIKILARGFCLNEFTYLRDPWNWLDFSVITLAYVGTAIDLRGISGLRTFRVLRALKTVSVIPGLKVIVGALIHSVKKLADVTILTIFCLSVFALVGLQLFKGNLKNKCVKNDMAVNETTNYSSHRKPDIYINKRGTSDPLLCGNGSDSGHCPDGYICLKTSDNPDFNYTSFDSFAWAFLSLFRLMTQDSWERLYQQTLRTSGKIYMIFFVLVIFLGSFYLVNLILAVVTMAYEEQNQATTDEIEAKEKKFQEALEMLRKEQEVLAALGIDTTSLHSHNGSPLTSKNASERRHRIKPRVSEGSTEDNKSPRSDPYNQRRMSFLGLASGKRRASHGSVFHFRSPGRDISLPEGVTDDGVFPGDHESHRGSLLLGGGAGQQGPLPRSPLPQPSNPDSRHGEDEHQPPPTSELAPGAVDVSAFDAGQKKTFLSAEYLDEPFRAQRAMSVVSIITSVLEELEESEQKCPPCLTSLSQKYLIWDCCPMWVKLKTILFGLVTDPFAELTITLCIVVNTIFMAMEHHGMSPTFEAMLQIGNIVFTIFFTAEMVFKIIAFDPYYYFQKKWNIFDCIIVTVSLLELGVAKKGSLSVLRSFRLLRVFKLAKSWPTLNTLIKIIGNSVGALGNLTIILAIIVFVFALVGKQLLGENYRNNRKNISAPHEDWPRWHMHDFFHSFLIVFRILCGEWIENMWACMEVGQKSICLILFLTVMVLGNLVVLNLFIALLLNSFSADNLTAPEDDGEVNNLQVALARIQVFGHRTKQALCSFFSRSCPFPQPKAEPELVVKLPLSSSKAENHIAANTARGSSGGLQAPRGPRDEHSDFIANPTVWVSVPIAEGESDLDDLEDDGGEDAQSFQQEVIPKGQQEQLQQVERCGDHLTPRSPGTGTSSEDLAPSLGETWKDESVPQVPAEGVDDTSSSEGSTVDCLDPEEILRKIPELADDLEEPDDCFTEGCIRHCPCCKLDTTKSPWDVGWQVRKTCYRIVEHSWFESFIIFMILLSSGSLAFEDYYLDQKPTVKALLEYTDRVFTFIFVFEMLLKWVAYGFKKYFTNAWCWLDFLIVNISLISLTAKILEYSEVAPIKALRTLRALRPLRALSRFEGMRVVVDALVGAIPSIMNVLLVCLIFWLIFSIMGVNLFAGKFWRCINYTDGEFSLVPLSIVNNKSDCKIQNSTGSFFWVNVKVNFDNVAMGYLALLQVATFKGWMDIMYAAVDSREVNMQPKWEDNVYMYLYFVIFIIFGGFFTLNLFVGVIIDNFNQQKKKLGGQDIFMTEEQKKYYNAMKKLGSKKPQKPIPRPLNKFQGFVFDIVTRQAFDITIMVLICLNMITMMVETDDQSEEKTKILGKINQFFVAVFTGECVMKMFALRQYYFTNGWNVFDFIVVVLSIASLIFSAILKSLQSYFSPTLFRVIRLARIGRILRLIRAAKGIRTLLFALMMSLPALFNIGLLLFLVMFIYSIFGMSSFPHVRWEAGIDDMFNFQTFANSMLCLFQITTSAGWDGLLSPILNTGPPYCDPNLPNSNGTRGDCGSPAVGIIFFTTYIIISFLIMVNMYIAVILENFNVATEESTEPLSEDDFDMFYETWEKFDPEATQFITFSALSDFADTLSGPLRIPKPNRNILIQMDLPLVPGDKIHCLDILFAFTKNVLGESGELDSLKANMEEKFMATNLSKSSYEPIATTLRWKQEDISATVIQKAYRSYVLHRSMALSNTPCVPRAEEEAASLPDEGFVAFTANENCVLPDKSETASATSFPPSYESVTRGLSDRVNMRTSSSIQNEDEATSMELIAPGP
T1 sequence (Q9NY72 23-215 partner): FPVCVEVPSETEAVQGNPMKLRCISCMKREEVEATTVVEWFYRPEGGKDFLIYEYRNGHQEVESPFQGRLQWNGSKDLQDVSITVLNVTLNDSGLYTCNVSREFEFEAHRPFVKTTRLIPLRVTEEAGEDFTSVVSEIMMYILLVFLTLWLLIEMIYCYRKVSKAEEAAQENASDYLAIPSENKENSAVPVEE

With `Cc1cnc(C(N)=O)cc1NC(=O)c1c(C(F)(F)F)c(C)nn1CC1CCC(F)(F)CC1` [SC-249, 4-(1-((4,4-difluorocyclohexyl)methyl)-3-methyl-4-(trifluoromethyl)-1H-pyrazole-5-carboxamido)-5-methyipicolinamide], the IC50 fell in the range of 100 to 1000 nM.

With `CS(=O)(=O)c1cc(NC(=O)c2c(C(F)(F)F)c(C3CC3)nn2CC2CCC(F)(F)CC2)ccn1` [SC-250, 3-cyclopropyl-1-((4,4-difluorocyclohexyl)methyl)-N-(2-(methylsulfonyl)pyridin-4-yl)-4-(trifluoromethyl)-1H-pyrazole-5-carboxamide], the IC50 is at most 100 nM. The figure for `Cc1ncc(NC(=O)c2c(C(F)(F)F)c(C)nn2CC2CCC(F)(F)CC2)cc1C(N)=O` [SC-251, 5-(1-((4,4-difluorocyclohexyl)methyl)-3-methyl-4-(trifluoromethyl)-1H-pyrazole-5-carboxamido)-2-methylnicotinamide] is 1000 to 10000 nM; for `Cc1cc(NC(=O)c2c(C(F)(F)F)c(C)nn2CC2CCC(F)(F)CC2)ccn1` [SC-252, 1-((4,4-difluorocyclohexyl)methyl)-3-methyl-N-(2-methylpyridin-4-yl)-4-(trifluoromethyl)-1H-pyrazole-5-carboxamide] it is 100 to 1000 nM. The figure for `Cc1nn(CC2CCC(F)(F)CC2)c(C(=O)Nc2cccc(C(N)=O)n2)c1C(F)(F)F` [SC-253, 6-(1-((4,4-difluorocyclohexyl)methyl)-3-methyl-4-(trifluoromethyl)-1H-pyrazole-5-carboxamido)picolinamide] is 1000 to 10000 nM. The figure for `CS(=O)(=O)c1cccc(NC(=O)c2c(C(F)(F)F)cnn2CC2(O)CCCCC2)c1` [SC-255, 1-((1-hydroxycyclohexyl)methyl)-N-(3-(methylsulfonyl)phenyl)-4-(trifluoromethyl)-1H-pyrazole-5-carboxamide] is 1000 to 10000 nM; for `Cc1nn(CC2CCC(F)(F)CC2)c(C(=O)Nc2ncc(C(N)=O)o2)c1C(F)(F)F` [SC-256, 2-(1-((4,4-difluorocyclohexyl)methyl)-3-methyl-4-(trifluoromethyl)-1H-pyrazole-5-carboxamido)oxazole-5-carboxamide] it is 1000 to 10000 nM. Take `Cc1nn(CC2CCC(F)(F)CC2)c(C(=O)Nc2ccc(C(N)=O)nc2)c1C(F)(F)F` [SC-257, 5-(1-((4,4-difluorocyclohexyl)methyl)-3-methyl-4-(trifluoromethyl)-1H-pyrazole-5-carboxamido)picolinamide]: the IC50 was 100 to 1000 nM. The figure for `CNC(=O)c1cc(NC(=O)c2c(C(F)(F)F)c(C)nn2CC2CCC(F)(F)CC2)ccn1` [SC-260, 4-(1-((4,4-difluorocyclohexyl)methyl)-3-methyl-4-(trifluoromethyl)-1H-pyrazole-5-carboxamido)-N-methyIpicolinamide] is 100 to 1000 nM.

For the molecule `NC(=O)c1cc(NC(=O)c2c(Cl)c(C3CC3)nn2CC2CCOCC2)ccn1` [SC-261, 4-(4-chloro-3-cyclopropyl-1-((tetrahydro-2H-pyran-4-yl)methyl)-1H-pyrazole-5-carboxamido)picolinamide], the IC50 is 100 to 1000 nM. With `NS(=O)(=O)c1cccc(NC(=O)c2c(C(F)(F)F)c(C(F)F)nn2CC2CCC(F)(F)C2)c1` (stereo not drawn) [SC-262, 1-((3,3-difluorocyclopentyl)methyl)-3-(difluoromethyl)-N-(3-sulfamoylphenyl)-4-(trifluoromethyl)-1H-pyrazole-5-carboxamide], the 50% inhibitory concentration (IC50) is at most 100 nM. The figure for `CS(=O)(=O)c1cc(NC(=O)c2c(C(F)(F)F)c(C3CC3)nn2CC2CCCO2)ccn1` (stereo not drawn) [SC-263, 3-cyclopropyl-N-(2-(methylsulfonyl)pyridin-4-yl)-1-((tetrahydrofuran-2-yl)methyl)-4-(trifluoromethyl)-1H-pyrazole-5-carboxamide] is 100 to 1000 nM; for `NS(=O)(=O)c1cccc(NC(=O)c2c(C(F)(F)F)c(C3CC3)nn2CC2CCCCO2)c1` (stereo not drawn) [SC-264, 3-cyclopropyl-N-(3-sulfamoylphenyl)-1-((tetrahydro-2H-pyran-2-yl)methyl)-4-(trifluoromethyl)-1H-pyrazole-5-carboxamide] it is at most 100 nM; for `COc1nn(CC2CCC(F)(F)C2)c(C(=O)Nc2cccc(S(N)(=O)=O)c2)c1C(F)(F)F` (stereo not drawn) [SC-265, 1-((3,3-difluorocyclopentyl)methyl)-3-methoxy-N-(3-sulfamoyIphenyl)-4-(trifluoromethyl)-1H-pyrazole-5-carboxamide] it is at most 100 nM. The figure for `NC(=O)c1cc(NC(=O)c2c(C(F)(F)F)c(C3CC3)nn2CC2CC2)ccn1` [SC-266, 4-(3-cyclopropyl-1-(cyclopropylmethyl)-4-(trifluoromethyl)-1H-pyrazole-5-carboxamido)picolinamide] is at most 100 nM. The result for `Cc1cc(NC(=O)c2c(C(F)(F)F)c(C)nn2CC2CCC(F)(F)CC2)cc(C(N)=O)n1` [SC-267, 4-(1-((4,4-difluorocyclohexyl)methyl)-3-methyl-4-(trifluoromethyl)-1H-pyrazole-5-carboxamido)-6-methylpicolinamide] reads 100 to 1000 nM; that for `Cc1nn(CC2CCC(F)(F)CC2)c(C(=O)Nc2cc(C(N)=O)c(F)cn2)c1C(F)(F)F` [SC-268, 2-(1-((4,4-difluorocyclohexyl)methyl)-3-methyl-4-(trifluoromethyl)-1H-pyrazole-5-carboxamido)-5-fluoroisonicotinamide], 1000 to 10000 nM; that for `COc1c(C(F)(F)F)nn(CC2CCC(F)(F)C2)c1C(=O)Nc1ccnc(C(N)=O)c1` (stereo not drawn) [SC-269, 4-(1-((3,3-difluorocyclopentyl)methyl)-4-methoxy-3-(trifluoromethyl)-lH-pyrazole-5-carboxamido)picolinamide], 100 to 1000 nM. In the case of `COc1nn(CC2CCC(F)(F)C2)c(C(=O)Nc2ccnc(C(N)=O)c2)c1C(F)(F)F` (stereo not drawn) [SC-273, 4-(1-((3,3-difluorocyclopentyl)methyl)-3-methoxy-4-(trifluoromethyl)-lH-pyrazole-5-carboxamido)picolinamide], the half-maximal inhibitory concentration (IC50) is at most 100 nM. For `NC(=O)c1cc(NC(=O)c2c(C(F)(F)F)c(C3CC3)nn2CC2CC(F)(F)C2)ccc1F` [SC-274, N-(3-carbamoyl-4-fluorophenyl)-3-cyclopropyl-1-((3,3-difluorocyclobutyl)methyl)-4-(trifluoromethyl)-1H-pyrazole-5-carboxamide], the IC50 was at most 100 nM. Turning to `CS(=O)(=O)c1cc(NC(=O)c2c(C(F)F)c(C3CC3)nn2CC2CCC(F)(F)C2)ccn1` (stereo not drawn) [SC-275, 3-cyclopropyl-1-((3,3-difluorocyclopentyl)methyl)-4-(difluoromethyl)-N-(2-(methylsulfonyl)pyridin-4-yl)-1H-pyrazole-5-carboxamide], the half-inhibitory concentration (IC50) is at most 100 nM. The figure for `NS(=O)(=O)c1cccc(NC(=O)c2c(C(F)(F)F)c(C3CC3)nn2CC2CC(F)(F)C2)c1` [SC-276, 3-cyclopropyl-1-((3,3-difluorocyclobutyl)methyl)-N-(3-sulfamoyIphenyl)-4-(trifluoromethyl)-lH-pyrazole-5-carboxamide] is at most 100 nM; for `Cc1nn(CC2CCC(F)(F)CC2)c(C(=O)Nc2cnnc(S(C)(=O)=O)c2)c1C(F)(F)F` [SC-280, 1-((4,4-difluorocyclohexyl)methyl)-3-methyl-N-(6-(methylsulfonyl)pyridazin-4-yl)-4-(trifluoromethyl)-1H-pyrazole-5-carboxamide] it is 100 to 1000 nM. The figure for `NS(=O)(=O)c1cc(NC(=O)c2c(C(F)(F)F)c(C3CC3)nn2CC2CC(F)(F)C2)ccn1` [SC-282, 3-cyclopropyl-1-((3,3-difluorocyclobutyl)methyl)-N-(2-sulfamoylpyridin-4-yl)-4-(trifluoromethyl)-1H-pyrazole-5-carboxamide] is at most 100 nM. The figure for `NC(=O)c1cc(NC(=O)c2c(C(F)(F)F)c(OC3CC(F)(F)C3)nn2CC2CCC(F)(F)C2)ccn1` (stereo not drawn) [SC-283, 4-(3-(3,3-difluorocyclobutoxy)-1-((3,3-difluorocyclopentyl)methyl)-4-(trifluoromethyl)-1H-pyrazole-5-carboxamido)picolinamide] is at most 100 nM; for `Cc1nn(CC2CCC(F)(F)CC2)c(C(=O)Nc2ccnc(C(N)=O)c2F)c1C(F)(F)F` [SC-289, 4-(1-((4,4-difluorocyclohexyl)methyl)-3-methyl-4-(trifluoromethyl)-1H-pyrazole-5-carboxamido)-3-fluoropicolinamide] it is 1000 to 10000 nM; for `CS(=O)(=O)c1cc(NC(=O)c2c(C(F)(F)F)c(C3CC3)nn2CC2CC(OC(F)F)C2)ccn1` (stereo not drawn) [SC-290, 3-cyclopropyl-1-((3-(difluoromethoxy)cyclobutyl)methyl)-N-(2-(methyIsulfonyl)pyridin-4-yl)-4-(trifluoromethyl)-1H-pyrazole-5-carboxamide] it is 100 to 1000 nM. Take `Cc1nn(CC2CCC(F)(F)CC2)c(C(=O)Nc2ccnc(C(N)=O)c2C)c1C(F)(F)F` [SC-294, 4-(1-((4,4-difluorocyclohexyl)methyl)-3-methyl-4-(trifluoromethyl)-1H-pyrazole-5-carboxamido)-3-methylpicolinamide]: the IC50 is 1000 to 10000 nM. The result for `Cc1c(C(C)(F)F)nn(CC2CC(F)(F)C2)c1C(=O)Nc1cccc(S(N)(=O)=O)c1` [SC-295, 1-((3,3-difluorocyclobutyl)methyl)-3-(1,1-difluoroethyl)-4-methyl-N-(3-sulfamoylphenyl)-1H-pyrazole-5-carboxamide] reads at most 100 nM; that for `CCc1nn(CC2CCC(F)(F)C2)c(C(=O)Nc2ccnc(S(C)(=O)=O)c2)c1C(F)(F)F` (stereo not drawn) [SC-297, 1-((3,3-difluorocyclopentyl)methyl)-3-ethyl-N-(2-(methylsulfonyl)pyridin-4-yl)-4-(trifluoromethyl)-1H-pyrazole-5-carboxamide], at most 100 nM.

(Values after patent US11999699B2, “Substituted pyrazole amides” (GRUENENTHAL GMBH, priority 2021, dated 2024).)
